Patent US20250122219A1 (priority 2023, published 2025)
Where two headings read alike, the source gives them in different places.

Columns and labels:
[1] = Cytotoxicity assay in MT-4 cells; format: cell-based; settings: human; uninfected MT-4 cells, 5 days incubation, Cell Titer Glo; read-out: MT4 CC50
How it was run: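 Uninfected MT-4 cells exposed to serially diluted compounds in RPMI with 10% FBS for 5 days at 37 °C. Viability by Cell Titer Glo chemiluminescence. Puromycin […] as baseline cytotoxicity control.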

HIV-1 (IIIB) = assay: Antiviral assay in MT-4 cells; format: cell-based
How it was run: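 HIV-1 IIIB-infected MT-4 cells (fresh 1:250 virus stock dilution; mock-infected controls) incubated 5 days at 37 °C with serially diluted compounds in RPMI/10% FBS; 5 μM AZT as positive control. Cell viability read by CellTiter-Glo luminescence as measure of protection from viral replication.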

[2] = Human immunodeficiency virus 1, MT4, 120 h, HIV-1 IIIB in MT-4 cells, 5 days incubation, Cell Titer Glo, read-out: MT4 EC50

Row | Compound | CC50 at 5 days [1] [nM] | EC50 (HIV-1 (IIIB); Human immunodeficiency virus 1, IIIB, MT4, 120 h, read-out: MT4 EC50 (nM)) [nM] | EC50 (HIV-1 (IIIB); [2]) [nM]
1 | COC1=NO[C@@]2(CC[C@H](C)N3C[C@H]2n2cc(C(=O)NCc4ccc(F)cc4F)c(=O)c(OCOC(=O)CCC(C)C)c2C3=O)C1 [Example 82, (((3′S,5S,7′R)-10′-((2,4-difluorobenzyl)carbamoyl)-3-methoxy-3′-methyl-1′,11′-dioxo-1′,4′,5′,11′-tetrahydro-3′H,4H,7′H-spiro[isoxazole-5,6′-[2,7]methanopyrido[1,2-a][1,4]diazonin]-12′-yl)oxy)methyl 4-methylpentanoate] | 17300 | 2.52 | –
2 | COC1=NO[C@@]2(CC[C@H](C)N3C[C@H]2n2cc(C(=O)NCc4ccc(F)cc4F)c(=O)c(OCOC(C)=O)c2C3=O)C1 [Example 83, (((3′S,5S,7′R)-10′-((2,4-difluorobenzyl)carbamoyl)-3-methoxy-3′-methyl-1′,11′-dioxo-1′,4′,5′,11′-tetrahydro-3′H,4H,7′H-spiro[isoxazole-5,6′-[2,7]methanopyrido[1,2-a][1,4]diazonin]-12′-yl)oxy)methyl acetate] | 16000 | – | 2.69
3 | CC(=O)OCOc1c2n(cc(C(=O)NCc3ccc(F)cc3F)c1=O)[C@@H]1CN(C2=O)[C@@H](C)CC[C@]12CC(C)=NO2 [Example 84, (((3′S,5S,7′R)-10′-((2,4-difluorobenzyl)carbamoyl)-3,3′-dimethyl-1′,11′-dioxo-1′,4′,5′,11′-tetrahydro-3′H,4H,7′H-spiro[isoxazole-5,6′-[2,7]methanopyrido[1,2-a][1,4]diazonin]-12′-yl)oxy)methyl acetate] | 19900 | – | 3.29
4 | CCC(=O)OCOc1c2n(cc(C(=O)NCc3ccc(F)cc3F)c1=O)[C@@H]1CN(C2=O)[C@@H](C)CC[C@]12CC(OC)=NO2 [Example 85, (((3′S,5S,7′R)-10′-((2,4-difluorobenzyl)carbamoyl)-3-methoxy-3′-methyl-1′,11′-dioxo-1′,4′,5′,11′-tetrahydro-3′H,4H,7′H-spiro[isoxazole-5,6′-[2,7]methanopyrido[1,2-a][1,4]diazonin]-12′-yl)oxy)methyl propionate] | 28400 | – | 2.25
5 | CCC(=O)OCOc1c2n(cc(C(=O)NCc3ccc(F)cc3F)c1=O)[C@@H]1CN(C2=O)[C@@H](C)CC[C@]12CC(C)=NO2 [Example 86, (((3′S,5S,7′R)-10′-((2,4-difluorobenzyl)carbamoyl)-3,3′-dimethyl-1′,11′-dioxo-1′,4′,5′,11′-tetrahydro-3′H,4H,7′H-spiro[isoxazole-5,6′-[2,7]methanopyrido[1,2-a][1,4]diazonin]-12′-yl)oxy)methyl propionate] | 21000 | – | 2.53
6 | CCCC(=O)OCOc1c2n(cc(C(=O)NCc3ccc(F)cc3F)c1=O)[C@@H]1CN(C2=O)[C@@H](C)CC[C@]12CC(OC)=NO2 [Example 87, (((3′S,5S,7′R)-10′-((2,4-difluorobenzyl)carbamoyl)-3-methoxy-3′-methyl-1′,11′-dioxo-1′,4′,5′,11′-tetrahydro-3′H,4H,7′H-spiro[isoxazole-5,6′-[2,7]methanopyrido[1,2-a][1,4]diazonin]-12′-yl)oxy)methyl butyrate] | 16400 | – | 1.8
7 | CCCC(=O)OCOc1c2n(cc(C(=O)NCc3ccc(F)cc3F)c1=O)[C@@H]1CN(C2=O)[C@@H](C)CC[C@]12CC(C)=NO2 [Example 88, (((3′S,5S,7′R)-10′-((2,4-difluorobenzyl)carbamoyl)-3,3′-dimethyl-1′,11′-dioxo-1′,4′,5′,11′-tetrahydro-3′H,4H,7′H-spiro[isoxazole-5,6′-[2,7]methanopyrido[1,2-a][1,4]diazonin]-12′-yl)oxy)methyl butyrate] | 20400 | – | 1.78
8 | CCCCC(=O)OCOc1c2n(cc(C(=O)NCc3ccc(F)cc3F)c1=O)[C@@H]1CN(C2=O)[C@@H](C)CC[C@]12CC(OC)=NO2 [Example 89, (((3′S,5S,7′R)-10′-((2,4-difluorobenzyl)carbamoyl)-3-methoxy-3′-methyl-1′,11′-dioxo-1′,4′,5′,11′-tetrahydro-3′H,4H,7′H-spiro[isoxazole-5,6′-[2,7]methanopyrido[1,2-a][1,4]diazonin]-12′-yl)oxy)methyl pentanoate] | 15800 | – | 0.2
9 | CCCCC(=O)OCOc1c2n(cc(C(=O)NCc3ccc(F)cc3F)c1=O)[C@@H]1CN(C2=O)[C@@H](C)CC[C@]12CC(C)=NO2 [Example 90, (((3′S,5S,7′R)-10′-((2,4-difluorobenzyl)carbamoyl)-3,3′-dimethyl-1′,11′-dioxo-1′,4′,5′,11′-tetrahydro-3′H,4H,7′H-spiro[isoxazole-5,6′-[2,7]methanopyrido[1,2-a][1,4]diazonin]-12′-yl)oxy)methyl pentanoate] | 18200 | – | 0.176
10 | CCCCCC(=O)OCOc1c2n(cc(C(=O)NCc3ccc(F)cc3F)c1=O)[C@@H]1CN(C2=O)[C@@H](C)CC[C@]12CC(OC)=NO2 [Example 91, (((3′S,5S,7′R)-10′-((2,4-difluorobenzyl)carbamoyl)-3-methoxy-3′-methyl-1′,11′-dioxo-1′,4′,5′,11′-tetrahydro-3′H,4H,7′H-spiro[isoxazole-5,6′-[2,7]methanopyrido[1,2-a][1,4]diazonin]-12′-yl)oxy)methyl hexanoate] | 37300 | – | 1.86
11 | CCCCCC(=O)OCOc1c2n(cc(C(=O)NCc3ccc(F)cc3F)c1=O)[C@@H]1CN(C2=O)[C@@H](C)CC[C@]12CC(C)=NO2 [Example 92, (((3′S,5S,7′R)-10′-((2,4-difluorobenzyl)carbamoyl)-3,3′-dimethyl-1′,11′-dioxo-1′,4′,5′,11′-tetrahydro-3′H,4H,7′H-spiro[isoxazole-5,6′-[2,7]methanopyrido[1,2-a][1,4]diazonin]-12′-yl)oxy)methyl hexanoate] | 21500 | – | 2.14
12 | CCCCCCC(=O)OCOc1c2n(cc(C(=O)NCc3ccc(F)cc3F)c1=O)[C@@H]1CN(C2=O)[C@@H](C)CC[C@]12CC(OC)=NO2 [Example 93, (((3′S,5S,7′R)-10′-((2,4-difluorobenzyl)carbamoyl)-3-methoxy-3′-methyl-1′,11′-dioxo-1′,4′,5′,11′-tetrahydro-3′H,4H,7′H-spiro[isoxazole-5,6′-[2,7]methanopyrido[1,2-a][1,4]diazonin]-12′-yl)oxy)methyl heptanoate] | 19500 | – | 2.63
13 | CCCCCCC(=O)OCOc1c2n(cc(C(=O)NCc3ccc(F)cc3F)c1=O)[C@@H]1CN(C2=O)[C@@H](C)CC[C@]12CC(C)=NO2 [Example 94, (((3′S,5S,7′R)-10′-((2,4-difluorobenzyl)carbamoyl)-3,3′-dimethyl-1′,11′-dioxo-1′,4′,5′,11′-tetrahydro-3′H,4H,7′H-spiro[isoxazole-5,6′-[2,7]methanopyrido[1,2-a][1,4]diazonin]-12′-yl)oxy)methyl heptanoate] | 17600 | – | 2.73
14 | CCCCCCCC(=O)OCOc1c2n(cc(C(=O)NCc3ccc(F)cc3F)c1=O)[C@@H]1CN(C2=O)[C@@H](C)CC[C@]12CC(OC)=NO2 [Example 95, (((3′S,5S,7′R)-10′-((2,4-difluorobenzyl)carbamoyl)-3-methoxy-3′-methyl-1′,11′-dioxo-1′,4′,5′,11′-tetrahydro-3′H,4H,7′H-spiro[isoxazole-5,6′-[2,7]methanopyrido[1,2-a][1,4]diazonin]-12′-yl)oxy)methyl octanoate] | ≥ 50000 | – | 0.998
15 | CCCCCCCC(=O)OCOc1c2n(cc(C(=O)NCc3ccc(F)cc3F)c1=O)[C@@H]1CN(C2=O)[C@@H](C)CC[C@]12CC(C)=NO2 [Example 96, (((3′S,5S,7′R)-10′-((2,4-difluorobenzyl)carbamoyl)-3,3′-dimethyl-1′,11′-dioxo-1′,4′,5′,11′-tetrahydro-3′H,4H,7′H-spiro[isoxazole-5,6′-[2,7]methanopyrido[1,2-a][1,4]diazonin]-12′-yl)oxy)methyl octanoate] | ≥ 50000 | – | 0.562
16 | CCCCCCCCC(=O)OCOc1c2n(cc(C(=O)NCc3ccc(F)cc3F)c1=O)[C@@H]1CN(C2=O)[C@@H](C)CC[C@]12CC(OC)=NO2 [Example 97, (((3′S,5S,7′R)-10′-((2,4-difluorobenzyl)carbamoyl)-3-methoxy-3′-methyl-1′,11′-dioxo-1′,4′,5′,11′-tetrahydro-3′H,4H,7′H-spiro[isoxazole-5,6′-[2,7]methanopyrido[1,2-a][1,4]diazonin]-12′-yl)oxy)methyl nonanoate] | ≥ 50000 | – | 4.59
17 | CCCCCCCCC(=O)OCOc1c2n(cc(C(=O)NCc3ccc(F)cc3F)c1=O)[C@@H]1CN(C2=O)[C@@H](C)CC[C@]12CC(C)=NO2 [Example 98, (((3′S,5S,7′R)-10′-((2,4-difluorobenzyl)carbamoyl)-3,3′-dimethyl-1′,11′-dioxo-1′,4′,5′,11′-tetrahydro-3′H,4H,7′H-spiro[isoxazole-5,6′-[2,7]methanopyrido[1,2-a][1,4]diazonin]-12′-yl)oxy)methyl nonanoate] | ≥ 50000 | – | 3.87
18 | CCCCCCCCCC(=O)OCOc1c2n(cc(C(=O)NCc3ccc(F)cc3F)c1=O)[C@@H]1CN(C2=O)[C@@H](C)CC[C@]12CC(OC)=NO2 [Example 99, (((3′S,5S,7′R)-10′-((2,4-difluorobenzyl)carbamoyl)-3-methoxy-3′-methyl-1′,11′-dioxo-1′,4′,5′,11′-tetrahydro-3′H,4H,7′H-spiro[isoxazole-5,6′-[2,7]methanopyrido[1,2-a][1,4]diazonin]-12′-yl)oxy)methyl decanoate] | ≥ 50000 | – | 0.471
